Data from patent US20090270379A1, “QUINOLONE DERIVATIVES USEFUL AS ANTIBACTERIAL AGENTS” (priority 2008, published 2009).
≈ marks a conversion by molar mass, not a printed value.

Tests used:
Assay type in all cases: cell-based
[1] = tested on: strain D, fluoroquinolone-resistant clinical isolate of Streptococcus pneumoniae; assay: In vitro antibacterial activity (MIC), microdilution broth method, strain D; details: read-out: MIC (μg/mL) D
Protocol: (§1) Minimal inhibitory concentration (MIC) is an indicator of in vitro antibacterial activity. […] The in vitro antimicrobial activity of representative compounds of the present invention was determined by the microdilution broth method following the test method from the National Committee for Clinical Laboratory Standards (NCCLS). This method is described in the NCCLS Document M7-A4, Vol. 17, No. 2, “Methods for Dilution Antimicrobial Susceptibility Test for Bacteria that Grow Aerobically—Fourth Edition”, which is incorporated herein by reference.
(§2) In this method two-fold serial dilutions of drug in cation adjusted Mueller-Hinton broth were added to wells in microdilution trays. The test organisms were prepared by adjusting the turbidity of actively growing broth cultures so that the final concentration of test organism after it is added to the wells was approximately 5×10^4 CFU/well. Following inoculation of the microdilution trays, the trays were incubated at 35° C. for 16-20 hours and then read. The amount of growth in the wells containing the test compound was compared with the amount of growth in the growth-control wells (no test compound) used in each tray.
(§3) Representative compounds of the present invention were tested against a variety of pathogenic bacteria with results as listed in Table 3, below.

[2] = tested on: strain C, fluoroquinolone-resistant clinical isolate of Streptococcus pneumoniae; assay: In vitro antibacterial activity (MIC), microdilution broth method, strain C; details: read-out: MIC (μg/mL) C
Protocol: as §1, §2, §3

[3] = tested on: strain B, fluoroquinolone-resistant clinical isolate of Streptococcus pneumoniae; assay: In vitro antibacterial activity (MIC), microdilution broth method, strain B; details: read-out: MIC (μg/mL) B
Protocol: as §1, §2, §3

[4] = tested on: Staphylococcus aureus OC4172; assay: In vitro antibacterial activity (MIC), microdilution broth method, strain A; details: cation adjusted Mueller-Hinton broth, 35° C., 16-20 hours
Protocol: as §1, §2, §3

[5] = tested on: Streptococcus pneumoniae ATCC 49619; assay: In vitro antibacterial activity (MIC), microdilution broth method, strain E; details: ATCC49619, 35° C., 16-20 hours
Protocol: as §1, §2, §3

SMILES | MIC [1] | MIC [2] | MIC [3] | MIC [4] | MIC [5]
O=C(O)c1cn(C2CC2)c2c(OC(F)F)c(-c3cc4n(c3)CCNC4)ccc2c1=O [Compound 1, 1-Cyclopropyl-8-difluoromethoxy-4-oxo-7-(1,2,3,4-tetrahydro-pyrrolo[1,2-a]pyrazin-7-yl)-1,4-dihydro-quinoline-3-carboxylic acid] | 8 µg/mL (≈ 19.3 µM) | 8 µg/mL (≈ 19.3 µM) | 1 µg/mL (≈ 2.41 µM) | 0.06 µg/mL (≈ 0.144 µM) | 0.5 µg/mL (≈ 1.2 µM)
O=C(O)c1cn(C2CC2)c2c(OC(F)F)c(C3=C[C@H]4CN(Cc5ccccc5)CCN4C3)ccc2c1=O [Compound 2, 7-(2-Benzyl-1,2,3,4,6,8a-hexahydro-pyrrolo[1,2S-a]pyrazin-7-yl)-1-cyclopropyl-8-difluoromethoxy-4-oxo-1,4-dihydro-quinoline-3-carboxylic acid] | > 16 µg/mL | > 16 µg/mL | > 16 µg/mL | 0.5 µg/mL (≈ 0.985 µM) | 8 µg/mL (≈ 15.8 µM)
O=C(O)c1cn(C2CC2)c2c(OC(F)F)c(C3C[C@H]4CNCCN4C3)ccc2c1=O (stereo partly drawn) [Compound 3, 1-Cyclopropyl-8-difluoromethoxy-7-(octahydro-pyrrolo[1,2S-a]pyrazin-7-yl)-4-oxo-1,4-dihydro-quinoline-3-carboxylic acid] | > 16 µg/mL | > 16 µg/mL | > 16 µg/mL | 8 µg/mL (≈ 19.1 µM) | > 16 µg/mL
CN1CCn2cc(-c3ccc4c(=O)c(C(=O)O)cn(C5CC5)c4c3OC(F)F)cc2C1 [Compound 4, 1-Cyclopropyl-8-difluoromethoxy-7-(2-methyl-1,2,3,4-tetrahydro-pyrrolo[1,2-a]pyrazin-7-yl)-4-oxo-1,4-dihydro-quinoline-3-carboxylic acid] | > 16 µg/mL | > 16 µg/mL | 2 µg/mL (≈ 4.66 µM) | 0.25 µg/mL (≈ 0.582 µM) | 2 µg/mL (≈ 4.66 µM)
CN1CCN2CC(c3ccc4c(=O)c(C(=O)O)cn(C5CC5)c4c3OC(F)F)C[C@H]2C1 (stereo partly shown) [Compound 5, 1-Cyclopropyl-8-difluoromethoxy-7-(2-methyl-octahydro-pyrrolo[1,2s-a]pyrazin-7-yl)-4-oxo-1,4-dihydro-quinoline-3-carboxylic acid] | > 16 µg/mL | > 16 µg/mL | > 16 µg/mL | 8 µg/mL (≈ 18.5 µM) | > 16 µg/mL
C[C@H]1CN2CC(c3ccc4c(=O)c(C(=O)O)cn(C5CC5)c4c3OC(F)F)C[C@H]2CN1 (stereo partly drawn) [Compound 6, 1-Cyclopropyl-8-difluoromethoxy-7-(3S-methyl-octahydro-pyrrolo[1,2S-a]pyrazin-7-yl)-4-oxo-1,4-dihydro-quinoline-3-carboxylic acid] | > 16 µg/mL | > 16 µg/mL | > 16 µg/mL | 4 µg/mL (≈ 9.23 µM) | > 16 µg/mL
C[C@H]1Cn2cc(-c3ccc4c(=O)c(C(=O)O)cn(C5CC5)c4c3OC(F)F)cc2CN1 [Compound 7, 1-Cyclopropyl-8-difluoromethoxy-7-(3S-methyl-1,2,3,4-tetrahydro-pyrrolo[1,2-a]pyrazin-7-yl)-4-oxo-1,4-dihydro-quinoline-3-carboxylic acid] | 16 µg/mL (≈ 37.3 µM) | 8 µg/mL (≈ 18.6 µM) | 1 µg/mL (≈ 2.33 µM) | 0.12 µg/mL (≈ 0.279 µM) | 1 µg/mL (≈ 2.33 µM)
C[C@@H]1NCCn2cc(-c3ccc4c(=O)c(C(=O)O)cn(C5CC5)c4c3OC(F)F)cc21 [Compound 8, 1-Cyclopropyl-8-difluoromethoxy-7-(1S-methyl-1,2,3,4-tetrahydro-pyrrolo[1,2-a]pyrazin-7-yl)-4-oxo-1,4-dihydro-quinoline-3-carboxylic acid] | > 16 µg/mL | 16 µg/mL (≈ 37.3 µM) | 4 µg/mL (≈ 9.31 µM) | 0.5 µg/mL (≈ 1.16 µM) | 1 µg/mL (≈ 2.33 µM)
C[C@H]1NCCn2cc(-c3ccc4c(=O)c(C(=O)O)cn(C5CC5)c4c3OC(F)F)cc21 [Compound 9, 1-Cyclopropyl-8-difluoromethoxy-7-(1R-methyl-1,2,3,4-tetrahydro-pyrrolo[1,2-a]pyrazin-7-yl)-4-oxo-1,4-dihydro-quinoline-3-carboxylic acid] | > 16 µg/mL | 16 µg/mL (≈ 37.3 µM) | 4 µg/mL (≈ 9.31 µM) | 0.5 µg/mL (≈ 1.16 µM) | 1 µg/mL (≈ 2.33 µM)
CN[C@@H](C)C(=O)N1CCn2cc(-c3ccc4c(=O)c(C(=O)O)cn(C5CC5)c4c3OC(F)F)cc2C1 [Compound 10, 1-Cyclopropyl-8-difluoromethoxy-7-[2S-(2-methylamino-propionyl)-1,2,3,4-tetrahydro-pyrrolo[1,2-a]pyrazin-7-yl]-4-oxo-1,4-dihydro-quinoline-3-carboxylic acid] | > 16 µg/mL | 16 µg/mL (≈ 32 µM) | 4 µg/mL (≈ 7.99 µM) | 0.25 µg/mL (≈ 0.499 µM) | 2 µg/mL (≈ 4 µM)
COc1c(-c2cc3n(c2)C[C@H](C)NC3)c(F)cc2c(=O)c(C(=O)O)cn(C3CC3)c12 [Compound 11, 1-Cyclopropyl-6-fluoro-8-methoxy-7-(3S-methyl-1,2,3,4-tetrahydro-pyrrolo[1,2-a]pyrazin-7-yl)-4-oxo-1,4-dihydro-quinoline-3-carboxylic acid] | 4 µg/mL (≈ 9.72 µM) | 1 µg/mL (≈ 2.43 µM) | 0.5 µg/mL (≈ 1.22 µM) | 0.03 µg/mL (≈ 0.0729 µM) | 0.12 µg/mL (≈ 0.292 µM)
COc1c(-c2cc3n(c2)C[C@@H](C)NC3)c(F)cc2c(=O)c(C(=O)O)cn(C3CC3)c12 [Compound 12, 1-Cyclopropyl-6-fluoro-8-methoxy-7-(3R-methyl-1,2,3,4-tetrahydro-pyrrolo[1,2-a]pyrazin-7-yl)-4-oxo-1,4-dihydro-quinoline-3-carboxylic acid] | 8 µg/mL (≈ 19.4 µM) | 2 µg/mL (≈ 4.86 µM) | 1 µg/mL (≈ 2.43 µM) | 0.03 µg/mL (≈ 0.0729 µM) | 0.25 µg/mL (≈ 0.608 µM)
COc1c(-c2cc3n(c2)C[C@H](C)N(C)C3)c(F)cc2c(=O)c(C(=O)O)cn(C3CC3)c12 [Compound 13, 1-Cyclopropyl-7-(2,3S-dimethyl-1,2,3,4-tetrahydro-pyrrolo[1,2-a]pyrazin-7-yl)-6-fluoro-8-methoxy-4-oxo-1,4-dihydro-quinoline-3-carboxylic acid] | 8 µg/mL (≈ 18.8 µM) | 4 µg/mL (≈ 9.4 µM) | 0.5 µg/mL (≈ 1.18 µM) | 0.12 µg/mL (≈ 0.282 µM) | 0.5 µg/mL (≈ 1.18 µM)
COc1c(-c2cc3n(c2)C[C@@H](C)N(C)C3)c(F)cc2c(=O)c(C(=O)O)cn(C3CC3)c12 [Compound 14, 1-Cyclopropyl-7-(2,3R-dimethyl-1,2,3,4-tetrahydro-pyrrolo[1,2-a]pyrazin-7-yl)-6-fluoro-8-methoxy-4-oxo-1,4-dihydro-quinoline-3-carboxylic acid] | > 16 µg/mL | 8 µg/mL (≈ 18.8 µM) | 2 µg/mL (≈ 4.7 µM) | 0.25 µg/mL (≈ 0.588 µM) | 1 µg/mL (≈ 2.35 µM)
COc1c(-c2cc3n(c2)C[C@H](CO)N(C)C3)c(F)cc2c(=O)c(C(=O)O)cn(C3CC3)c12 [Compound 15, 1-Cyclopropyl-6-fluoro-7-(3R-hydroxymethyl-2-methyl-1,2,3,4-tetrahydro-pyrrolo[1,2-a]pyrazin-7-yl)-8-methoxy-4-oxo-1,4-dihydro-quinoline-3-carboxylic acid] | 16 µg/mL (≈ 36.2 µM) | 8 µg/mL (≈ 18.1 µM) | 4 µg/mL (≈ 9.06 µM) | 0.12 µg/mL (≈ 0.272 µM) | 1 µg/mL (≈ 2.27 µM)
COc1c(-c2cc3n(c2)CCN[C@H]3C)c(F)cc2c(=O)c(C(=O)O)cn(C3CC3)c12 [Compound 16, 1-Cyclopropyl-6-fluoro-8-methoxy-7-(1S-methyl-1,2,3,4-tetrahydro-pyrrolo[1,2-a]pyrazin-7-yl)-4-oxo-1,4-dihydro-quinoline-3-carboxylic acid] | 8 µg/mL (≈ 19.4 µM) | 4 µg/mL (≈ 9.72 µM) | 2 µg/mL (≈ 4.86 µM) | 0.12 µg/mL (≈ 0.292 µM) | 0.5 µg/mL (≈ 1.22 µM)
COc1c(-c2cc3n(c2)CCN[C@@H]3C)c(F)cc2c(=O)c(C(=O)O)cn(C3CC3)c12 [Compound 17, 1-Cyclopropyl-6-fluoro-8-methoxy-7-(1R-methyl-1,2,3,4-tetrahydro-pyrrolo[1,2-a]pyrazin-7-yl)-4-oxo-1,4-dihydro-quinoline-3-carboxylic acid] | > 16 µg/mL | 16 µg/mL (≈ 38.9 µM) | 8 µg/mL (≈ 19.4 µM) | 0.25 µg/mL (≈ 0.608 µM) | 2 µg/mL (≈ 4.86 µM)
COc1c(-c2cc3n(c2)C[C@H](C)N[C@@H]3C)c(F)cc2c(=O)c(C(=O)O)cn(C3CC3)c12 [Compound 18, 1-Cyclopropyl-7-(1R,3S-dimethyl-1,2,3,4-tetrahydro-pyrrolo[1,2-a]pyrazin-7-yl)-6-fluoro-8-methoxy-4-oxo-1,4-dihydro-quinoline-3-carboxylic acid] | 16 µg/mL (≈ 37.6 µM) | 8 µg/mL (≈ 18.8 µM) | 2 µg/mL (≈ 4.7 µM) | 0.12 µg/mL (≈ 0.282 µM) | 1 µg/mL (≈ 2.35 µM)
C[C@H]1Cn2cc(-c3cc4c(cc3F)c(=O)c(C(=O)O)cn4C3CC3)cc2CN1 [Compound 19, 1-Cyclopropyl-6-fluoro-7-(3S-methyl-1,2,3,4-tetrahydro-pyrrolo[1,2-a]pyrazin-7-yl)-4-oxo-1,4-dihydro-quinoline-3-carboxylic acid] | > 16 µg/mL | 4 µg/mL (≈ 10.5 µM) | 2 µg/mL (≈ 5.24 µM) | 0.06 µg/mL (≈ 0.157 µM) | 0.5 µg/mL (≈ 1.31 µM)
C[C@H]1Cn2cc(-c3cc4c(cc3F)c(=O)c(C(=O)O)cn4C3CC3)cc2CN1C [Compound 20, 1-Cyclopropyl-7-(2,3S-dimethyl-1,2,3,4-tetrahydro-pyrrolo[1,2-a]pyrazin-7-yl)-6-fluoro-4-oxo-1,4-dihydro-quinoline-3-carboxylic acid] | > 16 µg/mL | 16 µg/mL (≈ 40.5 µM) | 4 µg/mL (≈ 10.1 µM) | 0.5 µg/mL (≈ 1.26 µM) | 1 µg/mL (≈ 2.53 µM)
